Converted amounts (≈) assume the structure as drawn. “And” between values parts separate entries of the source, which are not always exact repeats. Equal values may be shown once. Read-outs that look alike come from different tables or passages of the source.
Experiments:
[1] = tested on: Plasmodium falciparum chloroquine-susceptible strain D6; test: In vitro antimalarial drug susceptibility assay (radiolabeled hypoxanthine incorporation), strain D6; format: cell-based; details: growth inhibition, chloroquine-susceptible strain D6, 66 h incubation
[2] = tested on: VERO cells
[3] = tested on: Plasmodium falciparum chloroquine-resistant strain W2; test: microbe, parasite or virus in culture; format: cell-based; details: growth inhibition, chloroquine-resistant strain W2, 66 h incubation
[4] = tested on: Mycobacterium tuberculosis H37Rv (ATCC 27294); test: Primary screen, Microplate Alamar Blue Assay (MABA), percent inhibition; format: cell-based; details: Mycobacterium tuberculosis, primary screening at 6.25 μg/ml
Procedure, shortened: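 Single-concentration screen at 6.25 μg/ml (or molar equivalent of the heaviest congener in a series) against H37Rv grown in BACTEC 12B medium. Growth read by Microplate Alamar Blue Assay, reported as percent inhibition.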

[5] = tested on: M. tuberculosis H37Rv; test: Minimum inhibitory concentration (MIC) in the MABA; format: cell-based, Mycobacterium tuberculosis; details: Mycobacterium tuberculosis, H37RV, read-out: MIC
Procedure, shortened: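 Run under the NIAID TAACF screening program against M. tuberculosis by fluorescence read-out. MIC taken as the lowest concentration giving 90% reduction in fluorescence relative to controls.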

[6] = tested on: D6 and W2 P. falciparum clones; format: cell-based, Plasmodium falciparum; details: IC50 (W2)/IC50 (D6) ratio
[7] = in vitro; details: African green monkey, Cytotoxcity (IC50)
[8] = tested on: SR leukemia cell line; test: NCI in vitro antiproliferative screen (SRB), SR; format: cell-based, human; details: after 48 h; for GI50 / CC50: Homo sapiens; for CC50: read-out: LC50 (the source's name)
Experimental: (§1) In preliminary tests, four compounds (1B14a, 1C44, 1C45, and 1C46) were chosen by NIH-NCI for in vitro screening. See Drug discovery and development program, National Cancer Institute, Bethesda, (NCI), http://dtp.nci.nih.gov. All tetraoxanes were evaluated in the 3-cell line (lung—NCI-H460, breast—MCF7, CNS-SF-268) one dose primary anticancer assay: growth percentage after 48 hours, at 100 μM concentration of tested compound. Two compounds were eliminated at this step (1B14a and 1C46), while the acid 1C44 and primary amide 1C45 were evaluated against the full panel of 60 human tumor cell lines starting with 10^−4 M concentration of investigated compounds.
(§2) The activity of numerous compounds of the present invention against various cancer cell lines was submitted to the Developmental Therapeutics Program (DTP) at the National Cancer Institute (NCI) of the National Institutes of Health (NIH) for screening.
(§3) The DTP Human Tumor Cell Line Screen utilizes 60 different human tumor cell lines, representing leukemia, melanoma and cancers of the lung, colon, brain, ovary, breast, prostate, and kidney according to conventional methods known in the art. See e.g. Alley, M. C., et al. (1988) Cancer Research 48:589-601; Grever, M. R., et al. (1992) Seminars in Oncology 19(6):622-638; and Boyd, M. R., and Paull, K. D. (1995) Drug Development Research 34:91-109, which are herein incorporated by reference.
(§4) Generally, the human tumor cell lines of the cancer screening panel are grown in RPMI 1640 medium containing 5% fetal bovine serum and 2 mM L-glutamine. For a typical screening experiment, cells are inoculated into 96 well microtiter plates in 100 μl at plating densities ranging from 5,000 to 40,000 cells/well depending on the doubling time of individual cell lines. After cell inoculation, the microtiter plates are incubated at 37° C., 5% CO2, 95% air and 100% relative humidity for 24 hours prior to addition of the compounds to be tested.
(§5) After 24 hours, two plates of each cell line are fixed in situ with TCA, to represent a measurement of the cell population for each cell line at the time of drug addition (Tz). Experimental drugs are solubilized in dimethyl sulfoxide at 400-fold the desired final maximum test concentration and stored frozen prior to use. At the time of drug addition, an aliquot of frozen concentrate is thawed and diluted to twice the desired final maximum test concentration with complete medium containing 50 μg/ml gentamicin. Additional four, 10-fold or ½ log serial dilutions are made to provide a total of five drug concentrations plus control. Aliquots of 100 μl of these different drug dilutions are added to the appropriate microtiter wells already containing 100 μl of medium, resulting in the required final drug concentrations.
(§6) Following drug addition, the plates are incubated for an additional 48 hours at 37° C., 5% CO2, 95% air, and 100% relative humidity. For adherent cells, the assay is terminated by the addition of cold TCA. Cells are fixed in situ by the gentle addition of 50 μl of cold 50% (w/v) TCA (final concentration, 10% TCA) and incubated for 60 minutes at 4° C. The supernatant is discarded, and the plates are washed five times with tap water and air dried. Sulforhodamine B (SRB) solution (100 μl) at 0.4% (w/v) in 1% acetic acid is added to each well, and plates are incubated for 10 minutes at room temperature. […]

[9] = tested on: UO-31 renal cancer cell line; test: NCI in vitro antiproliferative screen (SRB), UO-31; format: cell-based, human; details: UO-31, after 48 h; for GI50 / CC50: Homo sapiens; for CC50: read-out: LC50 (the source's name)
Experimental: as §1, §2, §3, §4, §5, §6

[10] = tested on: IGROV1 ovarian cancer cell line; test: NCI in vitro antiproliferative screen (SRB), IGROV1; format: cell-based, human; details: IGROV1, after 48 h
Experimental: as §1, §2, §3, §4, §5, §6

[11] = tested on: KM-12 colon cancer cell line; test: NCI in vitro antiproliferative screen (SRB), KM-12; format: cell-based, human; details: KM-12, after 48 h; for GI50 / CC50: Homo sapiens, KM12; for CC50: read-out: LC50 (the source's name)
Experimental: as §1, §2, §3, §4, §5, §6

[12] = tested on: TK-10 renal cancer cell line; test: NCI in vitro antiproliferative screen (SRB), TK-10; format: cell-based, human; details: TK-10, after 48 h; for GI50 / CC50: Homo sapiens; for CC50: read-out: LC50 (the source's name)
Experimental: as §1, §2, §3, §4, §5, §6

[13] = tested on: MALME-3M melanoma cancer cell line; test: NCI in vitro antiproliferative screen (SRB), MALME-3M; format: cell-based, human; details: for GI50 / CC50: Homo sapiens; for CC50: read-out: LC50 (the source's name)
Experimental: as §1, §2, §3, §4, §5, §6

[14] = tested on: VERO cells; test: cells; details: Chlorocebus sabaeus, Table 5
[15] = ratio of IC50 in VERO cells to MIC (M. tuberculosis H37Rv)
[16] = Table 3, H37Rv, read-out: Inhibition (%)
[17] = Table 5, Alamar assay, read-out: % Inhib
[18] = Table 5, Alamar assay, M. tuberculosis H37Rv
[19] = MALME-3M, after 48 h, read-out: GI50

Row | SMILES | Strain D6 IC50 [1] [µg/mL] | Strain W2 IC50 [3] [µg/mL] | inhibition at 6.25 µg/mL [4, 16] [%] | MIC ([5]; Table 3, H37Rv) | GI50 [8] [µM] | CC50 [8] [µM] | GI50 [9] [µM] | CC50 [9] [µM] | TGI [9] [µM] | GI50 ([10]; Homo sapiens, IGROV-1) [µM] | TGI [10] [µM] | GI50 [11] [µM] | CC50 [11] [µM] | TGI [11] [µM] | GI50 [12] [µM] | CC50 [12] [µM] | TGI [12] [µM] | GI50 [13, 19] [µM] | CC50 ([13]; MALME-3M, after 48 h) [µM] | TGI ([13]; MALME-3M, after 48 h) [µM] | further results
1 | CNC(=O)CCC(C)[C@H]1CCC2C3C(C[C@H](OC(C)=O)[C@@]21C)[C@@]1(C)CCC2(C[C@H]1C[C@H]3OC(C)=O)OOC1(CCC(C)CC1)OO2 (stereo partly drawn) [18/1C27, N-Methyl-7α,12α-diacetoxy-5β-cholan-24-amide-3-spiro-6′-(1′,2′,4′,5′-tetraoxacyclohexane)-3′-spiro-1″-((4″R)-methyl)cyclohexane] | 0.00386 | 0.00234 | 98 | 6.25 µg/mL and 9.65 µM |  |  |  |  |  |  |  |  |  |  |  |  |  |  |  |  | SI (selectivity index) [2, 15]: 0.91; inhibition at 6.25 µg/mL [4, 17]: 98%; MIC [5, 18]: 6.25 µg/mL (≈ 9.65 µM); Resistance Index [6]: 0.61; IC50 ([7]; Table 3, VERO cell line, 72 hours exposure): 5.69 µg/mL and 8.78 µM
2 | CC(=O)O[C@H]1CC2C(C3CC[C@H](C(C)CCC(N)=O)[C@]31C)[C@H](OC(C)=O)C[C@@H]1CC3(CC[C@]21C)OOC1(CCC(c2ccccc2)CC1)OO3 (single isomer, unassigned) [Compound 1C45, 7α,12α-Diacetoxy-5β-cholan-24-amide-3-spiro-6′-(1′,2′,4′,5′-tetraoxacyclohexane)-3′-spiro-1″-((4″R or S)-phenyl)cyclohexane] | 0.00719 | 0.00736 | 93 | 6.25 µg/mL (≈ 8.98 µM) | 0.29 | 100 | 0.36 | 4.57 | 1.35 | 0.295 | 1.11 | 1.19 | 7.15 | 2.92 | 2.7 | 8.07 | 4.66 | 0.02 | 37.3 | 3.99 | inhibition at 6.25 µg/mL [4, 17]: 93%; MIC [5, 18]: 6.25 µg/mL (≈ 8.98 µM); Resistance Index [6]: 1.02; GI50 ([13]; Malme-3M): 0.02 µM
3 | CC(=O)O[C@H]1C(=O)[C@@]2(C)[C@H]([C@H](OC(=O)c3ccccc3)[C@]3(O)C[C@H](OC(=O)[C@H](O)[C@@H](NC(=O)c4ccccc4)c4ccccc4)C(C)=C1C3(C)C)[C@]1(OC(C)=O)CO[C@@H]1C[C@@H]2O [Paclitaxel, reference compound] |  |  |  |  | 0.079 | 63.1 | 1.58 | 100 | 39.8 | 0.032 | 79.4 | 0.0079 | 100 | 79.4 | 0.25 | 79.4 | 50.1 | 2.51 | 79.4 | 50.1 | TGI [8]: 63.1 µM
4 | C[C@@H]1CC[C@H]2[C@@H](C)C(=O)O[C@@H]3O[C@@]4(C)CC[C@@H]1[C@]32OO4 [Artemisinin, reference compound] |  |  |  |  | 100 | 100 | 79.4 | 100 | 100 | 79.4 | 100 | 100 | 100 | 100 | 100 | 100 | 100 | 100 | 100 | 100 | TGI [8]: 100 µM
5 | CO[C@H]1/C=C/O[C@@]2(C)Oc3c(C)c(O)c4c(O)c(c(/C=N/N5CCN(C)CC5)c(O)c4c3C2=O)NC(=O)/C(C)=C\C=C\[C@H](C)[C@H](O)[C@@H](C)[C@@H](O)[C@@H](C)[C@H](OC(C)=O)[C@@H]1C [Rifampin, reference compound] |  |  |  | 0.12 µg/mL and 0.15 µM |  |  |  |  |  |  |  |  |  |  |  |  |  |  |  |  | SI (selectivity index) [2]: > 800; IC50 [14]: > 100 µg/mL; IC50 [7]: 111 µg/mL and 134 µM
6 | CC(=O)O[C@H]1CC2C(C3CC[C@H](C(C)CCC(=O)O)[C@]31C)[C@H](OC(C)=O)C[C@@H]1CC3(CC[C@]21C)OOC1(CCC(c2ccccc2)CC1)OO3 (single isomer, unassigned) [Compound 1C44, 7α,12α-Diacetoxy-5β-cholan-24-oic acid-3-spiro-6′-(1′,2′,4′,5′-tetraoxacyclohexane)-3′-spiro-1″-((4″R or S)-phenyl)cyclohexane] | 0.00619 | 0.00609 | 94 | 6.25 µg/mL (≈ 8.97 µM) | 1.83 | 100 | 1.83 | 6.73 | 3.51 | 0.26 | 0.82 | 1.96 | 40.1 | 5.36 | 1.99 | 27 | 5.94 | 2.27 | 47 | 9.14 | TGI [8]: 5.92 µM; SI (selectivity index) [2, 15]: 0.17; inhibition at 6.25 µg/mL [4, 17]: 94%; LC50 (concentration killing 50% of cells) ([10]; Homo sapiens, IGROV-1): 3.76 µM; MIC [5, 18]: 6.25 µg/mL (≈ 8.97 µM); IC50 [14]: 1.07 µg/mL (≈ 1.54 µM); Resistance Index [6]: 0.98
